# Measured values taken from article PMC9090141 (Pediatric blood & cancer, 2021).
# Where “and” joins values, the source holds several entries; their conditions need not be identical. Identical values can stand only once. Entries after “also recorded” stand apart in the source; their conditions may differ. Counter-ions that a name gives are not always drawn. Like-named read-outs stand apart in the source and are kept apart here.
# How the values were obtained:
# [1] = Plasma pharmacokinetics in cycle 1; assay type: in vivo, human; conditions: for Tmax / half-life / concentration at 24 h / AUC(0-inf) / AUC(0-t) / Cmax: plasma; for concentration at 24 h: RP2D (150 mg/m^2)
# [2] = system: recurrent or refractory solid and CNS tumors; experiment: Radiographic antitumor response; assay type: in vivo, human
# pCHK1 = conditions: cited from earlier work
# [3] = system: adults with advanced or metastatic solid tumors; conditions: cited from earlier work
# [4] = adults, 105 mg/m^2, cited from earlier work
# [5] = system: pediatric cancer cell lines; conditions: cited from earlier work
# [6] = system: pediatric tumor xenograft models; conditions: in vivo; cited from earlier work
# [7] = in vivo; cited from earlier work
# [8] = 80 mg/m^2 IV over 60 min, first dose cycle 1, 6 patients
# [9] = 100 mg/m^2 IV over 60 min, first dose cycle 1, 6 patients
# [10] = 125 mg/m^2 IV over 60 min, first dose cycle 1, 5 patients
# [11] = 150 mg/m^2 IV over 60 min, first dose cycle 1, 12 patients
# [12] = All Patients (80-150 mg/m^2), first dose cycle 1, 29 patients
# [13] = 25 patients evaluable for response
compound,measurement,setting,value
"COc1cccc(OCCCN)c1-c1cc(Nc2cnc(C#N)cn2)n[nH]1 [prexasertib, Prexasertib mesylate monohydrate]",CLp,[1]; [8],48.2 ± 11.5 L/hr/m^2
same,Vss,[1]; [8],245 ± 67 L/m^2
same,CLp,[1]; [9],45.1 L/hr/m^2 and 45.1 ± 12.6 L/hr/m^2
same,Vss,[1]; [9],332 ± 85 L/m^2
same,CLp,[1]; [10],49.3 ± 10.3 L/hr/m^2
same,Vss,[1]; [10],292 ± 169 L/m^2
same,CLp,[1]; [11],44.4 L/hr/m^2 and 44.4 ± 13.5 L/hr/m^2
same,Vss,[1]; [11],257 ± 98 L/m^2
same,exposure relative to the adult RP2D,[1]; 150 mg/m^2 vs RP2D from either adult study,twice the exposure
same,dose proportionality / linearity of PK,"[1]; 80–150 mg/m^2 dose range, single dose",linear; also recorded: proportional to dose
same,CLp,[1]; [12],46.1 ± 12.0 L/hr/m^2
same,Vss,[1]; [12],276 ± 102 L/m^2
same,BSA-adjusted plasma clearance,[1]; children <12 years (N=16),49.4 ± 10.0 L/hr/m^2
same,plasma clearance,[1]; females (N=9),47.1 ± 9.7 L/hr/m^2
same,time plasma concentrations maintained above the IC50 for pCHK1 inhibition,"[1]; human, in vivo",approximately 24 hours
same,Tmax,"[1]; human, intravenous",1.2 ± 0.5 h
same,half-life,"[1]; human, intravenous",8.9 ± 3.4 h
same,concentration at 24 h,"[1]; human, intravenous, 150 mg/m^2, median plasma concentration 24 hours after the first dose (C-24h)",13.4 ng/mL
same,concentration at 24 h,"[1]; human, intravenous, 150 mg/m^2, range of plasma concentration 24 hours after the first dose (C-24h)",7.6 to 43.6 ng/mL
same,AUC(0-inf),"[1]; human, iv, 80 mg/m2",1730 ± 387 ng·h/mL
same,AUC(0-t),"[1]; human, iv, 80 mg/m2",1620 ± 358 ng·h/mL
same,Cmax,"[1]; human, iv, 80 mg/m2",858 ± 311 ng/mL
same,Tmax,"[1]; human, iv, 80 mg/m2",1.4 ± 0.9 h
same,half-life,"[1]; human, iv, 80 mg/m2",7.6 ± 2.3 h
same,AUC(0-inf),"[1]; human, iv, 100 mg/m2",2380 ± 712 ng·h/mL
same,AUC(0-t),"[1]; human, iv, 100 mg/m2",2010 ± 416 ng·h/mL
same,Cmax,"[1]; human, iv, 100 mg/m2",984 ± 289 ng/mL
same,Tmax,"[1]; human, iv, 100 mg/m2",1.1 ± 0.2 h
same,half-life,"[1]; human, iv, 100 mg/m2",10 ± 3.9 h
same,AUC(0-inf),"[1]; human, iv, 125 mg/m2",2640 ± 632 ng·h/mL
same,AUC(0-t),"[1]; human, iv, 125 mg/m2",2460 ± 545 ng·h/mL
same,Cmax,"[1]; human, iv, 125 mg/m2",1230 ± 212 ng/mL
same,Tmax,"[1]; human, iv, 125 mg/m2",1.1 ± 0.1 h
same,half-life,"[1]; human, iv, 125 mg/m2",8.5 ± 4.5 h
same,AUC(0-inf),"[1]; human, iv, 150 mg/m2",3680 ± 1060 ng·h/mL
same,AUC(0-t),"[1]; human, iv, 150 mg/m2",3360 ± 898 ng·h/mL
same,Cmax,"[1]; human, iv, 150 mg/m2",1700 ± 822 ng/mL
same,Tmax,"[1]; human, iv, 150 mg/m2",1.2 ± 0.5 h
same,half-life,"[1]; human, iv, 150 mg/m2",9.2 ± 3.5 h
same,plasma clearance,[1]; males (N=20),45.6 ± 13.1 L/hr/m^2
same,BSA-adjusted plasma clearance,[1]; ≥12 years (N=13),42.2 ± 13.3 L/hr/m^2
same,best overall response (BOR),[2]; [13],stable disease in 3 patients; also recorded: Three patients had a best overall response (BOR) of stable disease
same,objective responses,[2]; [13],no objective responses
same,duration of stable disease,"[2]; patient with (anaplastic) ependymoma, dose level 2",3 cycles
same,duration of stable disease,"[2]; patient with hepatocellular carcinoma, dose level 1",5 cycles
same,duration of stable disease,"[2]; patient with undifferentiated sarcoma, dose level 3",5 cycles
same,median AUC0–72h predicted for efficacy,pCHK1; Calu-6 preclinical PK/PD model,1896 ng·h/mL
same,IC50 for pCHK1 inhibition (plasma concentration),pCHK1,14.1 ng/ml
same,dose-limiting toxicities at the adult RP2D,[3]; 105 mg/m^2 IV once every 14 days,no dose-limiting toxicities
same,adult recommended Phase 2 dose (RP2D),[3]; IV once every 14 days,105 mg/m^2
same,mean AUC0–24h,[4]; ref Hong et al. [11],1130 ng·h/mL
same,mean AUC0–24h,[4]; ref Iwasa et al. [20],1690 ng·h/mL
same,"inhibition of cell proliferation, potency",[5],low nanomolar concentrations
same,tolerability,[6],well-tolerated
same,CNS penetration,[7],adequate CNS penetration
